# Test results taken from patent US5977442A, “Salicylic acid induced map kinase and its use for enhanced disease resistance in plants” (priority 1997, dated 1999).
# Tests used:
# [1] = test system: phosphotyrosine-containing 48 kDa protein; assay: Immunoblot analysis with anti-phosphotyrosine antibody 4G10 of treated cell extracts; format: cell-based, Nicotiana tabacum cv Xanthi nc; conditions: 250 μM SA or 2 mM H2 O2; FIG. 4A
# Procedure: (§1) The cell suspension culture was derived from callus tissue originated from leaves of Nicotiana tabacum cv Xanthi nc and grown in MS medium supplemented with 1 mg/L α-naphthaleneacetic acid, 0.1 mg/L 2,4-dichlorophenoxyacetic acid, 0.1 mg/L benzyladenine, and 3% sucrose. Log phase cells were used three days after a 1:10 dilution. Treatment with H2 O2, SA and its analogues was performed in the original flasks in the dark to avoid any stresses associated with transfer. At various times, 10 mL cells (approximately 0.2 to 0.3 g fresh weight of cells) were harvested by filtration. The cells were quickly frozen in liquid nitrogen and stored at -80° C. until analysis.
# (§2) Protein extracts were separated by SDS-PAGE on 10% acrylamide gels, and the proteins were transferred to nitrocellulose membrane by semidry electroblotting. The membrane was blocked for 2 hours in TBS buffer (20 mM Tris, pH 7.5, 150 mM NaCl, 0.1% Tween 20, 0.1 mM Na3 VO4) with 10% BSA at room temperature, and then incubated with the phosphotyrosine-specific monoclonal antibody 4G10 (Upstate Biotechnology Incorporated, NY) in TBS buffer with BSA for 1 hr. After the blot was incubated with horseradish peroxidase-conjugated secondary antibody, the complexes were visualized using an enhanced chemiluminescence kit (DuPont, MA) following the manufacture's instructions.
# [2] = test system: 200 kDa and 75 kDa kinase activity bands; conditions: long exposure of autoradiogram
# Procedure: as §1
# The in-gel kinase assay was performed as described previously (Zhang et al., 1993). Extracts containing 10 μg protein were electrophoresed on 10% SDS-polyacrylamide gels imbedded with either 1 mg/mL of casein, 1 mg/mL histone (Type III-SS, Sigma, MO), 1 mg/mL BSA, or 0.25 mg/mL of MBP in the separating gel as substrate for the kinase. After electrophoresis, SDS was removed by washing the gel with washing buffer (25 mM Tris, pH 7.5, 0.5 mM DTT, 0.1 mM Na3 VO4, 5 mM NaF, 0.5 mg/mL BSA, 0.1% Triton X-100 [v/v]). The buffer was changed three times, each for 30 minutes at room temperature. […] Quantitation of the relative kinase activities were done using a phosphoimager (Molecular Dynamics Inc., CA).
# [3] = test system: 58 kDa, 52 kDa, and 40 kDa kinases; conditions: 1 mM and 2 mM
# Procedure: as §1
# Leaf discs were first ground to a fine powder in 1.5 ml microcentrifuge tubes using small plastic pestles. […]
# The in-gel kinase assay was performed as described previously (Zhang et al., 1993). […] Quantitation of the relative kinase activities were done using a phosphoimager (Molecular Dynamics Inc., CA).
# [4] = test system: p48 SIP kinase; assay: In-gel kinase activity assay (MBP substrate) in extracts of treated tobacco suspension cells: activation of p48 SIP kinase; format: cell-based, Nicotiana tabacum cv Xanthi nc
# Procedure: as §1
# Leaf discs were first ground to a fine powder in 1.5 ml microcentrifuge tubes using small plastic pestles. After adding 0.25 mL extraction buffer (100 mM Hepes, pH 7.5, 5 mM EDTA, 5 mM EGTA, 10 mM DTT, 10 mM Na3 VO4, 10 mM NaF, 50 mM β-glycerolphosphate, 1 mM phenylmethylsulfonyl fluoride, 5 μg/mL antipain, 5 μg/mL aprotinin, 5 μg/mL leupeptin, 10% glycerol, 7.5% polyvinylpolypyrrolidone), the mixture was sonicated for 15 seconds with a W-375 Sonicator (Heat System-Ultrasonics, Inc., N.Y.) fitted with a microprobe at setting 4 and 80% duty cycle. To prepare extracts from treated cells, cells were mixed with two volumes (w/v) of extraction buffer and were then sonicated twice for 15 seconds each in 1.5 mL microcentrifuge tube. After centrifugation at 13,000 rpm for 20 minutes, supernatants were transferred into clean tubes, quickly frozen in liquid nitrogen and stored at -80° C.
# The in-gel kinase assay was performed as described previously (Zhang et al., 1993). Extracts containing 10 μg protein were electrophoresed on 10% SDS-polyacrylamide gels imbedded with either 1 mg/mL of casein, 1 mg/mL histone (Type III-SS, Sigma, MO), 1 mg/mL BSA, or 0.25 mg/mL of MBP in the separating gel as substrate for the kinase. After electrophoresis, SDS was removed by washing the gel with washing buffer (25 mM Tris, pH 7.5, 0.5 mM DTT, 0.1 mM Na3 VO4, 5 mM NaF, 0.5 mg/mL BSA, 0.1% Triton X-100 [v/v]). The buffer was changed three times, each for 30 minutes at room temperature. The kinases were allowed to renature in 25 mM Tris, pH 7.5, 1 mM DTT, 0.1 mM Na3 VO4, 5 mM NaF at 4° C. overnight with three changes of buffer. The gel was then incubated at room temperature in 30 mL reaction buffer (25 mM Tris, pH 7.5, 2 mM EGTA, 12 mM MgCl2, 1 mM DTT, 0.1 mM Na3 VO4) with 200 nM ATP plus 50 μCi γ-^32 P-ATP (3000 Ci/mmole) for 60 minutes. The reaction was stopped by transferring the gel into 5% TCA (w/v)/1% NaPPi (w/v). The unincorporated γ-^32 P-ATP was removed by washing in the same solution for at least 6 hours with 5 changes of buffer. The gel was dried onto 3 MM paper and exposed to Kodak XAR-5 film. Prestained size markers (Bio-Rad, CA) were used to calculate the size of the kinases. Quantitation of the relative kinase activities were done using a phosphoimager (Molecular Dynamics Inc., CA).
# [5] = test system: tyrosine-phosphorylated proteins; conditions: in response to H2 O2
# Procedure: as §1, §2
# [6] = test system: p48 SIP kinase; assay: Treatment of p48 SIP kinase with phosphatases; format: biochemical, tobacco; conditions: okadaic acid against PP1; Na3 VO4 against YOP
# Procedure: FIG. 13 is a histogram showing inactivation of p48 SIP kinase by phosphatase treatment. Approximately 20 units of the SIP kinase was treated with either the serine/threonine-specific phosphatase PPI (0.1 units) or the tyrosine-specific protein phosphatase YOP (0.5 units) for 10 min (bars 2 to 5) or 30 min (bars 7 to 10) at 30° C. in the presence or absence of a phosphatase inhibitor. Bars 1 and 6 represent the control without phosphatase or phosphatase inhibitor; bars 2 and 7, PPI; bars 3 and 8, PPI plus okadaic acid (1 μM); bars 4 and 9, YOP; bars 5 and 10, YOP plus Na3 VO4 (1 mM). Before assaying for SIP kinase activity, the phosphatase inhibitors were added to all of the reactions to the same final concentrations.
# The phosphatase inhibitors present in the purified p48 SIP kinase preparation were first removed by dialysis against buffer B lacking β-glycerophosphate and Na3 VO4 in a 0.5-mL 10 K dialysis cassette (Slide-A-Lyzer; Pierce). For treatment with serine/threonine protein phosphatase PP1 (Calbiochem, San Diego, Calif.), MnCl2, DTT, and BSA were added to aliquots of the SIP kinase preparation to final concentrations of 200 μm, 5 mM and 100 μg/mL respectively. Then 0.1 unit of PP1 was added, and the reaction mixture was incubated at 30° C. in the presence or absence of 1 μM of the phosphatase inhibitor okadaic acid (Calbiochem). […]
# [7] = test system: p48 SIP kinase; assay: Activation of p48 SIP kinase in tobacco leaves after injection; format: in vivo, N. tabacum cv Xanthi nc
# Procedure: (§3) Tobacco plants (N. tabacum cv Xanthi nc) were grown at 22° C. in a growth room programmed for a 14-hr light cycle. Plants approximately 7-8 weeks old were used for experiments. For temperature-shift experiments, plants were transferred to a 32° C. chamber one day before inoculation. TMV strain U1 was used at a concentration of 1 μg/mL in 50 mM phosphate buffer, pH 7.0; mock inoculation was done with buffer only. After 48 hours infected plants were shifted back to 22° C. and leaf discs (1 cm in diameter) were taken at the indicated times. For water or SA treatment, one leaf from each plant was injected with solution using a syringe until the entire leaf was infiltrated.
# [8] = test system: the two major H2 O2 -scavenging enzymes; conditions: Chen et al., 1993; Durner and Klessig, 1995; cited from earlier work
# [9] = test system: kinase activities in extracts from SA-treated cells (casein, histone, or BSA as substrate); assay: In-gel kinase activity assay with casein, histone or BSA as substrate in extracts of treated tobacco suspension cells; format: cell-based, Nicotiana tabacum cv Xanthi nc
# [10] = test system: 44 kDa kinase; assay: Activation of 44 kDa kinase in tobacco leaves; format: in vivo, N. tabacum cv Xanthi nc; conditions: SA treatment of tobacco plants
# Procedure: as §3
# [11] = test system: PR-1 gene expression; conditions: Conrath et al., 1997; cited from earlier work
# [12] = test system: TMV; conditions: Dunigan et al., 1995; cited from earlier work
# [13] = test system: p48 SIP kinase (precipitation by 4G10 antibody); assay: Immunoprecipitation-kinase activity assay with 4G10 antibody and phospho-amino acid competitors; format: binding, Nicotiana tabacum cv Xanthi nc; conditions: 1 mM competitor
# Procedure: About 25 μL packed volume of protein A-agarose was added, and the incubation was continued for another 2 hours. Agarose bead-protein complexes were pelleted by brief centrifugation. After washing with immunoprecipitation buffer three times, 1× SDS sample buffer was added and the sample boiled for 3 minutes. After centrifugation, the supernatant fraction was electrophoresed on 10% SDS-PAGE gel, and the in-gel kinase assay was performed.
# [14] = target: myelin basic protein (MBP)
compound,measurement,setting,value
"OO [H2 O2, hydrogen peroxide]",tyrosine phosphorylation of 48 kDa protein,[1],prolonged phosphorylation of tyrosine residue(s) on a 48 kDa protein
same,weakly induced kinase activity bands at 200 kDa and 75 kDa,[2],weakly induced
same,"activation of other kinases (58, 52, 40 kDa)",[3],induced several kinase activities
same,activation of p48 SIP kinase by H2O2,[4]; 1 mM and 2 mM,induced several kinase activities including the p48 SIP kinase
same,kinase activity at 60 minutes after addition,[4]; 60 minutes after addition of H2 O2,remained at peak levels
same,duration of SIP kinase activation relative to SA,"[4]; tobacco suspension cells, data not shown for analogues",more sustained compared to that induced by SA
same,number of proteins phosphorylated on tyrosine residues,[5],at least four
[Na+].[Na+].[Na+].[O]=[V]([O-])([O-])[O-] [Na3 VO4],prevention of phosphatase inactivation of SIP kinase,[6],could be prevented
"O=C(O)c1ccccc1O [SA, salicylic acid]",tyrosine phosphorylation of 48 kDa protein,[1],transient increase in the level of a phosphotyrosine-containing 48 kDa protein
same,activation of p48 SIP kinase by second injection,"[7]; leaves first injected with water, then SA",dramatic activation of the p48 SIP kinase
same,"activation of kinase in leaves, first (rapid) peak: return to basal level",[7]; single injection 500 μM SA,about 30 minutes
same,"time of second, more prolonged peak of kinase activation",[7]; single injection 500 μM SA,approximately 3 hours
same,inhibition of the two major H2O2-scavenging enzymes,[8],can inhibit the two major H2 O2 -scavenging enzymes
same,time to peak of p48 SIP kinase activation,"[4]; 250 μM SA, tobacco suspension cells",≤ 5 min
same,activation of 48 kDa (p48 SIP) kinase,"[4]; 250 μM, tobacco suspension cells, MBP substrate",activated a 48 kDa kinase
same,reactivation of SIP kinase by second addition of SA,[4]; second addition up to 4 hr after initial treatment,did not reactivate the SIP kinase
same,minimum concentration of SA required to activate p48 kinase,[4]; tobacco suspension cells,100 µM
same,concentration at which maximum p48 kinase activity obtained,"[4]; tobacco suspension cells, FIG. 1E",500 µM
same,"increase in kinase activities with casein, histone, or BSA as substrate",[9],no increases in kinase activities were detected
same,activation of p44 kinase,[10],also evident after SA treatment of tobacco plants
C=C1[C@@H](O)[C@@H]2O[C@]3(CC[C@H](/C=C/[C@@H](C)[C@@H]4CC(C)=C[C@@]5(O[C@H](C[C@@](C)(O)C(=O)O)CC[C@H]5O)O4)O3)CC[C@H]2O[C@@H]1[C@@H](O)C[C@H](C)[C@H]1O[C@@]2(CCCCO2)CC[C@H]1C [okadaic acid],blocking of SA-mediated induction of PR-1 gene expression,[11],blocked the SA-mediated induction of PR-1 gene expression
same,prevention of phosphatase inactivation of SIP kinase,[6],could be prevented
same,inhibition of lesion formation after TMV infection,[12],lesion formation after TMV infection was inhibited
N[C@@H](Cc1ccc(OP(=O)(O)O)cc1)C(=O)O [phosphotyrosine],inhibition of precipitation of p48 SIP kinase,[13],inhibited precipitation of the p48 SIP kinase
"p48 SIP kinase (salicylic acid-induced protein kinase), activated form from SA- or H2O2-treated tobacco cells, in extracts or purified (enzyme)","phosphorylation of MBP, in-solution kinase assay (Km for MBP)",[14],0.19 mg/mL
